Test results reported in patent EP3474833B1, “CINNAMYL ALCOHOL DERIVATIVE FOR USE IN REDUCING APPETITE AND FOR GENERATING THE FEELING OF BEING FULL” (Symrise AG, priority 2016, dated 2017).

Test system: humane Neuroblastomazellen (SH-SY5Y, ATCC Nummer CRL-2266)
Assay: Serotonin release in SH-SY5Y neuroblastoma cells (Serotonin-ELISA)
Format: cell-based, human
Conditions: SH-SY5Y-Zellen, 10 µM test substance, 5 min stimulation, Krebs-Ringer-HEPES Puffer pH 6,2; relative to 10 µM Nonivamid
Protocol: Als Zellmodell für die Ausschüttung des Neurotransmitters Serotonin werden humane Neuroblastomazellen (SH-SY5Y, ATCC Nummer CRL-2266) verwendet. Die Kultivierung erfolgt bei 37 °C und 5 % CO2-Gehalt mit einer Mischung, die zu gleichen Teilen aus Eagle's Minimum Essential Medium (EMEM) und F12 Medium (jeweils mit 10 % FBS und 1 % Penicillin/Streptomycin) besteht. Zur Bestimmung der Serotoninfreisetzung werden die Zellen mit Trypsin geerntet und nach einer Vitalitätsprüfung durch Trypanblaufärbung in definierter Zellzahl in 24-well Platten (Corning cell culture treated) ausgesät.
Nach 5-minütiger Stimulierung von 90.000 humanen Neuroblastomazellen (SH SY5Y) mit 60 µl Krebs-Ringer-HEPES Puffer, 0,1 % Ascorbinsäure, pH 6,2, mit oder ohne Zusatz von 10 µM einer der Verbindungen 1-4, , bzw. 10 µM Nonivamid als Positivkontrolle wird der Serotoningehalt mit Hilfe eines enzymbasierten Nachweisverfahrens (Serotonin-ELISA sensitiv, DLD Diagnostica, Hamburg, Deutschland) ermittelt. Tabelle 1. Serotonin-Freisetzung in SH-SY5Y-Zellen nach Stimulierung mit je 10 µM von Verbindungen nach Formel I.

Row | SMILES | Serotoninfreisetzung [% der Positivkontrolle]
1 | CCCCCCCCC(=O)NCc1ccc(O)c(OC)c1 [Nonivamid, N-Nonanoylvanillylamin, reference compound] | 100 % der Positivkontrolle
2 | OCC=Cc1ccccc1 [Verbindung 1, Cinnamylalkohol] | 129.29 % der Positivkontrolle
3 | CCC(=O)OCC=Cc1ccccc1 [Verbindung 4, Cinnamylpropionat] | 115.57 % der Positivkontrolle
4 | CC(C)C(=O)OCC=Cc1ccccc1 [Verbindung 6, Cinnamylisobutyrat] | 120.69 % der Positivkontrolle
5 | CC(C)CC(=O)OC/C=C/c1ccccc1 [Verbindung 7, Cinnamylisovalerianat] | 118.47 % der Positivkontrolle
6 | O=C(C=Cc1ccccc1)OCC=Cc1ccccc1 [Verbindung 11, Cinnamylcinnamat] | 120.83 % der Positivkontrolle
